According to the supplement of paper PMC10307832:

Columns and labels:
Assay in all cases: relative viability (nuclei count vs DMSO), 5 days (fraction); higher = more cells survive
[1] = compound: C[As](C)SC[C@H](NC(=O)CC[C@H](N)C(=O)O)C(=O)NCC(=O)O [Darinaparsin] + Cc1cc(Nc2cc(N3CCN(C)CC3)nc(Sc3ccc(NC(=O)C4CC4)cc3)n2)n[nH]1 [Tozasertib] (partner 0.1 µM)
Summary of the method: (§1)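 Lung cancer cell lines, seeded in 1536-well plates, were treated the following day by pin tool with a single drug or with five library-drug doses (not always all listed) in √10 steps on top of a fixed anchor-drug dose. Cells were fixed and nuclei stained in one step after 5 days, and nuclei were counted. Relative viability is the nuclei count for treated wells divided by that for vehicle wells, reported as medians of duplicate plates.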

[2] = compound: C[As](C)SC[C@H](NC(=O)CC[C@H](N)C(=O)O)C(=O)NCC(=O)O [Darinaparsin] + C[C@]1(O)C[C@@H](c2nc(-c3ccc4ccc(-c5ccccc5)nc4c3)c3c(N)nccn32)C1 [Linsitinib] (partner 1 µM)
Summary of the method: as §1

AZ628 + Lapatinib = compound: CC1=C(C=C(C=C1)NC(=O)C2=CC(=CC=C2)C(C)(C)C#N)NC3=CC4=C(C=C3)N=CN(C4=O)C [AZ628] + CS(=O)(=O)CCNCc1ccc(-c2ccc3ncnc(Nc4ccc(OCc5cccc(F)c5)c(Cl)c4)c3c2)o1 [Lapatinib] (partner 2 µM)
Summary of the method: as §1

QS11 + Crizotinib = compound: C1CC2=C(C1)C=C(C=C2)OC3=NC(=C4C(=N3)N(C=N4)CC5=CC=C(C=C5)C6=CC=CC=C6)N[C@@H](CC7=CC=CC=C7)CO [QS11] + C[C@@H](Oc1cc(-c2cnn(C3CCNCC3)c2)cnc1N)c1c(Cl)ccc(F)c1Cl [Crizotinib] (partner 1 µM)
Summary of the method: as §1

Cell Line	relative viability ([1]; first compound 0.08 µM)	relative viability ([1]; first compound 0.8 µM)	relative viability ([1]; first compound 2.53 µM)	relative viability ([1]; first compound 8 µM)	relative viability ([2]; first compound 0.08 µM)	relative viability ([2]; first compound 0.8 µM)	relative viability ([2]; first compound 2.53 µM)	relative viability ([2]; first compound 8 µM)	relative viability (AZ628 + Lapatinib; first compound 0.08 µM)	relative viability (AZ628 + Lapatinib; first compound 0.253 µM)	relative viability (AZ628 + Lapatinib; first compound 0.8 µM)	relative viability (AZ628 + Lapatinib; first compound 2.53 µM)	relative viability (AZ628 + Lapatinib; first compound 8 µM)	relative viability (QS11 + Crizotinib; first compound 0.08 µM)	relative viability (QS11 + Crizotinib; first compound 0.253 µM)	relative viability (QS11 + Crizotinib; first compound 0.8 µM)	relative viability (QS11 + Crizotinib; first compound 2.53 µM)	relative viability (QS11 + Crizotinib; first compound 8 µM)
NCI-H647	0.0828	0.282	0.232	0.385	1.84	1.1	1.17	1.53	1.25	1.02	0.982	1.19	0.894	1.25	1.3	0.937	0.992	0.706
NCI-H1651	0.911	0.739	0.633	0.918	1.21	1.08	0.938	1.13	0.985	0.86	0.865	0.753	1.11	0.888	0.95	0.79	0.903	0.899
NCI-H838	0.275	0.24	0.256	0.304	1.28	0.962	0.997	1.24	1.05	0.992	0.572	0.956	1.04	0.937	0.788	0.576	0.746	0.761
NCI-H661	0.357	0.351	0.377	0.361	0.558	0.569	0.526	0.593	0.401	0.502	0.435	0.498	0.464	0.887	1.08	0.753	0.872	0.985
NCI-H1734	0.276	0.257	0.256	0.297	1.23	0.917	0.674	0.932	1.08	1.07	0.896	0.908	0.699	0.65	0.656	0.658	0.555	0.619
HCC-827	0.435	0.453	0.422	0.491	1.01	0.93	0.965	1.09	0.238	0.172	0.208	0.191	0.191	0.917	0.914	0.643	0.854	0.787
201T	1.04	0.914	0.994	1.12	1.04	1.03	1.04	1.06	1.01	0.988	1.06	1.12	1.18	1.04	1.07	0.778	1.03	0.947
NCI-H1395	0.839	0.771	0.765	0.723	1.01	0.995	0.97	0.991	1.04	1	0.942	0.933	0.916					
LCLC-103H	0.491	0.517	0.507	0.441	1.12	1.05	0.936	1.24						1.01	1.08	0.808	1	1.08
Calu-6					1.06	1.06	0.815	1.05	1.2	0.981	0.629	0.844	0.222	0.907	0.914	0.728	0.952	0.828
NCI-H1563					1.23	1.14	1.21	1.3	1.11	0.965	1.07	0.868	0.939	0.836	0.937	0.925	0.86	0.814
NCI-H2170	0.667	0.793	0.617	1.03					0.3	0.279	0.248	0.268	0.278	1.32	1.1	1.02	1.12	1.51
NCI-H1648	0.346	0.53		0.474														
NCI-H1793	0.344	0.305	0.278	0.385	0.919	1.01	0.769	1.22	0.927	0.627	0.573	0.665	0.579					
NCI-H2342	0.545	0.443	0.53	0.44														
NCI-H522	0.508	0.602	0.534	0.599														
NCI-H1792					0.571	0.488	0.402	0.536	0.995	0.891	0.653	0.793	0.566		1.06	0.662	1.11	1.33
A549					0.756	0.612	0.389	0.632	1.13	0.839	0.676	0.835	0.536	0.791	0.773	0.613	0.483	0.522
NCI-H1703					1.42	0.774	0.797	0.799	0.763	0.393	0.389	0.246	0.286	1.08	0.749	0.585	0.73	0.951
NCI-H1299					1.1	1	0.912	1.2	1.11	1.2	1.17	1.23	0.945	0.998	0.947	0.948	0.892	0.699
ChaGo-K-1	0.266	0.206	0.242	0.232											1.24	1.26	0.957	1.23
NCI-H1623	0.467	0.404	0.416	0.399														
NCI-H1650	0.473	0.325	0.417	0.394					1.24	0.795	0.79	0.498	0.68	0.994	0.843	0.868	0.986	0.894
EBC-1					1.12	0.942	0.864	1.15	0.219	0.205	0.251	0.22	0.199	0.19	0.203	0.206	0.224	0.238
SW 900	0.677	0.538	0.658	0.555														
